Experimental data from ChEMBL document CHEMBL1806441, “Discovery and synthesis of a new class of opioid ligand having a 3-azabicyclo[3.1.0]hexane core. An example of a 'magic methyl' giving a 35-fold improvement in binding” (Bioorg Med Chem Lett, 2011).
The source made the active and inactive calls. No cut-off for these calls is given here.

Key:
[1] = Binding affinity to dog kappa opioid receptor; set-up: species or system Canis lupus familiaris
[2] = system: Canis familiaris; assay: Antipruritic activity in dog with flea allergy dermatitis at 2 mg/kg, po upto 12 hrs; type: functional, organism-based; set-up: dose 2 mg/kg; details: Canis lupus familiaris
[3] = system: Mus musculus; assay: Inhibition of morphine-induced antinociception in ICR mouse assessed as antagonism of morphine response to heat-induced tail flick at 10 mg/kg, sc preincubated for 15 mins before the addition of morphine assessed after 30 mins; type: functional; details: route subcutaneous
[4] = biological target: T1, Cytochrome P450 2D15 (Canis lupus familiaris, UniProt Q29473); assay: Inhibition of dog CYP2D15; type: ADME
T1 sequence (Q29473 whole entry): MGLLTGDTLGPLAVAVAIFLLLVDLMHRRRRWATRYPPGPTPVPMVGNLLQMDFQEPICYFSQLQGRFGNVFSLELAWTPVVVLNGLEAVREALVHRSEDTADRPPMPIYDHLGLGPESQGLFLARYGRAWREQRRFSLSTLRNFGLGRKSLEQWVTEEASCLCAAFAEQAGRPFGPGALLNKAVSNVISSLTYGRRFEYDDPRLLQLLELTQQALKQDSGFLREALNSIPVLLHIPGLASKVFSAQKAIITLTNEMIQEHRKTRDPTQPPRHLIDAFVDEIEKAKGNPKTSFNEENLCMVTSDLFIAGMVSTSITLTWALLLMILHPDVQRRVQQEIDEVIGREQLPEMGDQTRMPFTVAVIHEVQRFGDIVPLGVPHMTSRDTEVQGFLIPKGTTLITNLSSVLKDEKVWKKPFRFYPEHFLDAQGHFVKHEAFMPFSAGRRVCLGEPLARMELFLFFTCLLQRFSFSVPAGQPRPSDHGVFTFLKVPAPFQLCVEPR

[5] = Binding affinity to dog mu opioid receptor; set-up: species or system Canis lupus familiaris
[6] = system: CHO; assay: Genotoxicity in CHO cells by micronucleus assay; type: toxicity, cell-based, Cricetulus griseus; details: chinese hamster
[7] = biological target: Mu-type opioid receptor (Cavia porcellus, UniProt P97266); assay: Antagonist activity at mu opioid receptor in guinea pig longitudinal muscle myenteric plexus assessed as inhibition of DAMGO-induced contraction after 10 mins; type: functional; details: read-out: pA2 (converted)
Mu-type opioid receptor (Cavia porcellus, UniProt P97266), sequence (P97266 whole entry): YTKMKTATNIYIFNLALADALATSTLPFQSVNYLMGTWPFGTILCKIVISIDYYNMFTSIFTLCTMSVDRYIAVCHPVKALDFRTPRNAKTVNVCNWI

[8] = biological target: Mu-type opioid receptor (Homo sapiens, UniProt P35372); assay: Displacement of [3H]DAMGO from human mu opioid receptor
Mu-type opioid receptor (Homo sapiens, UniProt P35372), sequence (P35372 whole entry): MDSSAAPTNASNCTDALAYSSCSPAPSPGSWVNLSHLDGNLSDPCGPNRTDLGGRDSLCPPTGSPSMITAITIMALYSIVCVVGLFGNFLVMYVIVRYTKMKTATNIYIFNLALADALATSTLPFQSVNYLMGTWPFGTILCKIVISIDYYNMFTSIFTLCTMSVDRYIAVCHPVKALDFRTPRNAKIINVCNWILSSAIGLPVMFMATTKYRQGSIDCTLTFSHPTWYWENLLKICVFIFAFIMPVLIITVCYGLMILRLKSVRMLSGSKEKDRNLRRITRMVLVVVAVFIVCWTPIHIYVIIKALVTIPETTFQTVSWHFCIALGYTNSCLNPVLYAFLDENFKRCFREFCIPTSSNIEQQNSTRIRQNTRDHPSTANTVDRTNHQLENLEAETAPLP

[9] = Binding affinity to dog delta opioid receptor; set-up: species or system Canis lupus familiaris

SMILES | Ki [1] [nM] | Activity [2] | inhibition in vivo at 10 mg/kg [3] [%] | inhibition (INH) [4] | Ki [5] [nM] | Activity [6] | Kb [7] [nM] | Ki [8] [nM] | Ki [9] [nM]
C[C@]1(c2cccc(NS(C)(=O)=O)c2)[C@@H]2CN(CCCc3ccccc3)C[C@@H]21 | 94 | Active | 89 | Active | 4.1 | Non-toxic | 10.7 | 4.79 | 183
CS(=O)(=O)Nc1cccc([C@H]2[C@@H]3CN(CCCc4ccccc4)C[C@@H]32)c1 | 1580 | – | – | – | 379 | – | – | 168 | > 10000
